Assay results reported in ChEMBL document CHEMBL1201862, “PubChem BioAssay data set” (2004).
The source made the active and inactive calls.

Tests used:
Large T antigen = Large T antigen (Simian virus 40, UniProt P03070); format: functional, Betapolyomavirus macacae;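 note: Confirmatory-stage PubChem screen for compounds that inhibit SV40 T antigen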
[1] = NIH-3T3 fibroblast cytotoxicity, dose response, cytotoxicity control, cell-based, fluorescence, Alamar Blue, secondary assay (AID 2327); format: functional;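 note: NIH-3T3 mouse fibroblasts cultured with fluconazole at 8 µg/mL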
cells [2] = format: functional, cell-based
[3] = fluconazole-exposed Candida albicans growth modulators – fluorescence, retest, confirmation (AID 2467); format: functional, cell-based
cells [4] = format: functional, cell-based; remark: listed apart in the source
[5] = target: T1, Polyadenylate-binding protein 1 (Homo sapiens, UniProt P11940); assay: MLLE binding blockers, Cy5 peptide tracer – biochemical, fluorescence polarization, Cy5-PAM2 peptide, secondary, miRNA deadenylation inhibitor project, dose response (AID 602260); format: functional; details: read-out: IC50_Mean
T1 sequence (P11940 whole entry, the tested form may be a part): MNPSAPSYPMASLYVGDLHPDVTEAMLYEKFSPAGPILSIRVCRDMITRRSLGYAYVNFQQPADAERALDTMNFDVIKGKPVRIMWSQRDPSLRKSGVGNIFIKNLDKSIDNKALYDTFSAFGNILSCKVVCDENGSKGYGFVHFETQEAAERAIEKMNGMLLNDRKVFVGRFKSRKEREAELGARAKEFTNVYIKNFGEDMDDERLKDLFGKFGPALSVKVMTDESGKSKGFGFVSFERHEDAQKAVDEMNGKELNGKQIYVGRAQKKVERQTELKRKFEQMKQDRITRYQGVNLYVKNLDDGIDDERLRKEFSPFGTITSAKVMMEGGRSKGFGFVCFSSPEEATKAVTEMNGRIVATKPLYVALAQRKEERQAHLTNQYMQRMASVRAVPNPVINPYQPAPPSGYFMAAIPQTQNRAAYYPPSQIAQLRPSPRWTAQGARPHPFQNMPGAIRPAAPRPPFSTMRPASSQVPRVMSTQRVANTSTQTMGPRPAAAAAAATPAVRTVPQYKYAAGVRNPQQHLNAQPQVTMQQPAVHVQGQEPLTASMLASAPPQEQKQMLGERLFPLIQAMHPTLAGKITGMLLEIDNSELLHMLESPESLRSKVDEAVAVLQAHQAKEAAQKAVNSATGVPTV

[6] = target: T1, Polyadenylate-binding protein 1; assay: MLLE domain peptide-binding blockers, IC50 – biochemical, fluorescence polarization, FITC-PAM2 peptide, dose response (AID 602259); format: functional; details: read-out: IC50_Mean
[7] = target: T2, Microphthalmia-associated transcription factor (Homo sapiens, UniProt O75030); assay: reducers of TRPM1 reporter luminescence, concentration series – cell-based, SK-MEL-5, cherry-picked, set 3, MITF inhibitor project, dose response (AID 493073); format: functional;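 note: SK-MEL-5 melanoma cells with luciferase driven by the MITF target TRPM1 promoter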
T2 sequence (O75030 whole entry): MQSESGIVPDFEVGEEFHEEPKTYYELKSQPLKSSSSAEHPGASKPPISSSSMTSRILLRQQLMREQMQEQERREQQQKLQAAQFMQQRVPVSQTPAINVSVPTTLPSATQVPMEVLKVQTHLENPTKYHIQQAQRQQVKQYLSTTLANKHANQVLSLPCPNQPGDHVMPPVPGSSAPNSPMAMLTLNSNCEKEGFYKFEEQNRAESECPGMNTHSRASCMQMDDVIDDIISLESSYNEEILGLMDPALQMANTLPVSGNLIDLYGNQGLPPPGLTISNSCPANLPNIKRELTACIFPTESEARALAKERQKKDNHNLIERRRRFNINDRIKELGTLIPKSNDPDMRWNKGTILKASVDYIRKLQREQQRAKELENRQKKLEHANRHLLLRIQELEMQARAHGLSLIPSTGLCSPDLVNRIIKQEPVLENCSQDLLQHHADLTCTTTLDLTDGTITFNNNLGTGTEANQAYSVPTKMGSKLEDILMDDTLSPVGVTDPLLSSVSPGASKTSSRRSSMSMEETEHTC

P388/ADR = assay: cells; format: functional; details: Mus musculus
SN12K1 = assay: cells; format: functional; details: Homo sapiens
[8] = target: FAD-linked sulfhydryl oxidase ALR (Homo sapiens, UniProt P55789); assay: ALR-catalysed DTT oxidation blockers – biochemical, H2O2 detection, luminescence, cherry-pick, dose response (AID 493248)
Sequence of FAD-linked sulfhydryl oxidase ALR (P55789 whole entry, the tested form may be a part): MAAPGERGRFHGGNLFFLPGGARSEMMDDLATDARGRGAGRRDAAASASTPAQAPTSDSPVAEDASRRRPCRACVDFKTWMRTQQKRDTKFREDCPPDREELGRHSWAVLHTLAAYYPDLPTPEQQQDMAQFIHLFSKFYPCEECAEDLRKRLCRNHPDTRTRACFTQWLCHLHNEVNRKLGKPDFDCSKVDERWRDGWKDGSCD

[9] = blockers of HIV-1 envelope-mediated cell-cell fusion – cherry-pick, dose response (AID 652057); format: functional, cell-based
[10] = HIV-1 AD8 envelope cell-cell fusion blockers – cherry-pick, dose response (AID 652062); format: functional, cell-based;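 note: luciferase signal from cell-cell fusion driven by HIV-1 clade B AD8 Env; potency is for inhibitors of fusion seen as a drop in luminescence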
Cytochrome P450 3A4 = Cytochrome P450 3A4 (Homo sapiens, UniProt P08684);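 note: CYP3A4 tested as one member of a cytochrome P450 panel screen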
Sequence of Cytochrome P450 3A4 (P08684 whole entry): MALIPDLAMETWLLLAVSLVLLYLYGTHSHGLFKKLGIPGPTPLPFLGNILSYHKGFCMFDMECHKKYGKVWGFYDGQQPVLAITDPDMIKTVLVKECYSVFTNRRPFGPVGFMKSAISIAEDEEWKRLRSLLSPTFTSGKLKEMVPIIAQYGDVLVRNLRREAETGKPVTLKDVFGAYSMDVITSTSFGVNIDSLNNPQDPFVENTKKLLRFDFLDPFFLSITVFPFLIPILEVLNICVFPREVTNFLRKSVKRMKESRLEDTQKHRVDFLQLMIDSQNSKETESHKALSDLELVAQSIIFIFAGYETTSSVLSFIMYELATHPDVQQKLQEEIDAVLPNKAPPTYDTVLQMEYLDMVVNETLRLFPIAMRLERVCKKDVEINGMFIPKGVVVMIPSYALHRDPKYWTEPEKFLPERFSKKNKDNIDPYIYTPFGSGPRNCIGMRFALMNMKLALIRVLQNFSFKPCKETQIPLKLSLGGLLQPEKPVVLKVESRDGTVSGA

[11] = HEK-293T viability loss after treatment – luminescence, T-cell screen hits, cytotoxicity control for TCR NF-kB inhibitor project, dose response (AID 489026); format: functional, cell-based;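 note: cells exposed to compound about 14 hours before the viability readout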
Cytochrome P450 1A2 = target: T3, Cytochrome P450 1A2 (Homo sapiens, UniProt P05177);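 note: PubChem cytochrome P450 panel assay, CYP1A2 panel member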
T3 sequence (P05177 whole entry): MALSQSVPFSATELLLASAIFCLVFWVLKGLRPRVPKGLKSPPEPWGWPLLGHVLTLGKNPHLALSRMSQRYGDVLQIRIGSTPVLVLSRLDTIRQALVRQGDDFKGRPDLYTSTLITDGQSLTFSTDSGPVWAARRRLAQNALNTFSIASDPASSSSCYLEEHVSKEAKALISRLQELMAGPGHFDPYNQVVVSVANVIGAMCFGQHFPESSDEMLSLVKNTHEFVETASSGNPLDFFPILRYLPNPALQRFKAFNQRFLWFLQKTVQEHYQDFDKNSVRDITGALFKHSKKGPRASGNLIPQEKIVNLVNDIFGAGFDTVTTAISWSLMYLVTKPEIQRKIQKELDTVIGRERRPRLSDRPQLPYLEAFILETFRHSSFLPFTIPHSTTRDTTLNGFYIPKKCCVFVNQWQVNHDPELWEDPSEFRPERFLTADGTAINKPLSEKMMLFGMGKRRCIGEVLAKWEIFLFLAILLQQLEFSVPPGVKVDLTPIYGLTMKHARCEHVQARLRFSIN

[12] = target: T4, Rac GTPase-activating protein 1 (Homo sapiens, UniProt Q9H0H5); assay: blockers of MgcRacGAP-driven Rac1 GTP hydrolysis – biochemical, ADP Hunter fluorescence, primary and confirmatory, confirmation (AID 624330); format: functional
T4 sequence (Q9H0H5 whole entry): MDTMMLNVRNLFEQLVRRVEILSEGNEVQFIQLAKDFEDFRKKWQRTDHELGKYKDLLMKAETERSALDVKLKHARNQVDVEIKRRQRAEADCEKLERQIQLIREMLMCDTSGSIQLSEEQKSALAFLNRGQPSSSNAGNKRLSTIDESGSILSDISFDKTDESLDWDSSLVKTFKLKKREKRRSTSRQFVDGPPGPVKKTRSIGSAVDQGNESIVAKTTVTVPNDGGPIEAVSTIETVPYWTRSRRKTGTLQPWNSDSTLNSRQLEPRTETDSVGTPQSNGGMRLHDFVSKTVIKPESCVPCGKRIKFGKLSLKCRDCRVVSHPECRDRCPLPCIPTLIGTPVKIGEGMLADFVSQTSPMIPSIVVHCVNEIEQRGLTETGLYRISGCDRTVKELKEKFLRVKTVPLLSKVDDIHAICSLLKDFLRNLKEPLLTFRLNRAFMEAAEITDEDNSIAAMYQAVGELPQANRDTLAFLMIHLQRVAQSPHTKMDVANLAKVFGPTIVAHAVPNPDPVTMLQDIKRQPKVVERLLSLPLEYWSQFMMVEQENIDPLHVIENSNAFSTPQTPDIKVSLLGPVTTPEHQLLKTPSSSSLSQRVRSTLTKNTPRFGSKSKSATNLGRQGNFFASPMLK

[13] = luciferase reporter signal suppression in cells – H4 neuroglioma cells, luminescence, dose response (AID 1990); format: functional, cell-based
[14] = Luminescence Cell-Based Dose Response HTS to Identify Inhibitors of 5'UTR Stem-Loop Driven Prion Protein mRNA Translation in H4 Neuroglioblastoma Cells. [Related pubchem assays: 1827 (Project Summary), 1813 (Primary HTS)]; format: functional
[15] = alpha-synuclein stem-loop luciferase translation blockers – H4 neuroglioma cells, luminescence, confirmation (AID 1988); format: functional, cell-based
[16] = viability of uninfected HEp-2 cells – cell-based, HTS, cytotoxicity control for RSV inhibitor project, dose response (AID 2410); format: functional; details: human respiratory syncytial virus
INS1 = assay: INS-1E survival protection against cytokine death – cell-based, luminescence, retest, dose response (AID 449756); format: functional; details: Rattus norvegicus;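 note: cell death triggered by IL-1 beta plus TNF-alpha plus IFN-gamma mixture; protective hits raise ATP signal compared with cytokine alone wells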
H9c2 = assay: cells; format: functional, cell-based; details: Rattus norvegicus, H9c2, Myocardium;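 note: confirmatory concentration-response retest of ultra-high-throughput screening hits for modulation of myocardial damage; cell death induced by hydrogen peroxide oxidative stress; compound pretreatment for 60 min then peroxide exposure for 2 h; potency is for protecting the cells against peroxide damage rather than for killing them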
Cytochrome P450 2C19 = Cytochrome P450 2C19 (Homo sapiens, UniProt P33261); assay: Cytochrome panel assay with activity outcomes. Panel member name: p450-cyp2c19 Compounds with AC50 equal or less than 10 uM are considered active; format: functional
Sequence of Cytochrome P450 2C19 (P33261 whole entry): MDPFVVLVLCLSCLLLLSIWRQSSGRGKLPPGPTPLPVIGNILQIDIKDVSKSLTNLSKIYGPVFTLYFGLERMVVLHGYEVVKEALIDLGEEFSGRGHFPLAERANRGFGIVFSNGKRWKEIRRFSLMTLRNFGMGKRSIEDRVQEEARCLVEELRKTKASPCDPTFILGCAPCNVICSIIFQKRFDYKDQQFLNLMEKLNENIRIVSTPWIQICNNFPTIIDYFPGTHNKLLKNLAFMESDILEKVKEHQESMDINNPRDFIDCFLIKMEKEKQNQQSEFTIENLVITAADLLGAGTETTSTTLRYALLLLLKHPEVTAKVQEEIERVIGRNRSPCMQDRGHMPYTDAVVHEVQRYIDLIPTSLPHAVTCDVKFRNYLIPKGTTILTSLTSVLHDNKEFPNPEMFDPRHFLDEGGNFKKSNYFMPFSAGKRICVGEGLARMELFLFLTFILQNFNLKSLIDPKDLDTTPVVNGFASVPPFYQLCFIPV

[17] = target: T5, Heat shock factor protein 1 (Mus musculus, UniProt P38532); assay: decrease of HSF1-responsive luciferase luminescence – cell-based, NIH3T3, dose retest, confirmation (AID 2382); format: functional;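 note: NIH3T3 fibroblasts with HSF1-driven luciferase reporter stressed by proteasome inhibitor MG132; luminescence from HSF1-driven luciferase expression after 8 hours of MG132 stress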
T5 sequence (P38532 whole entry): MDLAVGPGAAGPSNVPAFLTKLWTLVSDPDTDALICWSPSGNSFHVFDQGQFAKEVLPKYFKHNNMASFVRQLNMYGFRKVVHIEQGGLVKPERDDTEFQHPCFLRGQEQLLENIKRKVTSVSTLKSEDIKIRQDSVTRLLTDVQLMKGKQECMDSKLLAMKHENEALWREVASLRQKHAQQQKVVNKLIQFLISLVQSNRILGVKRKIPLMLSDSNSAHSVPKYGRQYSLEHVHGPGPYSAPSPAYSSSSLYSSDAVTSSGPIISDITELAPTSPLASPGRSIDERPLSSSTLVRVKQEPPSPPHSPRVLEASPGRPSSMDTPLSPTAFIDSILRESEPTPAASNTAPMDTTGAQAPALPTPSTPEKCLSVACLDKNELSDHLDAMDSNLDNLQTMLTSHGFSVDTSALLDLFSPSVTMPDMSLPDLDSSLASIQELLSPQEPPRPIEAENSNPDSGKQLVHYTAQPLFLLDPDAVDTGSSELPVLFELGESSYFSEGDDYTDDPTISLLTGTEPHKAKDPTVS

Sequence of Large T antigen (P03070 whole entry): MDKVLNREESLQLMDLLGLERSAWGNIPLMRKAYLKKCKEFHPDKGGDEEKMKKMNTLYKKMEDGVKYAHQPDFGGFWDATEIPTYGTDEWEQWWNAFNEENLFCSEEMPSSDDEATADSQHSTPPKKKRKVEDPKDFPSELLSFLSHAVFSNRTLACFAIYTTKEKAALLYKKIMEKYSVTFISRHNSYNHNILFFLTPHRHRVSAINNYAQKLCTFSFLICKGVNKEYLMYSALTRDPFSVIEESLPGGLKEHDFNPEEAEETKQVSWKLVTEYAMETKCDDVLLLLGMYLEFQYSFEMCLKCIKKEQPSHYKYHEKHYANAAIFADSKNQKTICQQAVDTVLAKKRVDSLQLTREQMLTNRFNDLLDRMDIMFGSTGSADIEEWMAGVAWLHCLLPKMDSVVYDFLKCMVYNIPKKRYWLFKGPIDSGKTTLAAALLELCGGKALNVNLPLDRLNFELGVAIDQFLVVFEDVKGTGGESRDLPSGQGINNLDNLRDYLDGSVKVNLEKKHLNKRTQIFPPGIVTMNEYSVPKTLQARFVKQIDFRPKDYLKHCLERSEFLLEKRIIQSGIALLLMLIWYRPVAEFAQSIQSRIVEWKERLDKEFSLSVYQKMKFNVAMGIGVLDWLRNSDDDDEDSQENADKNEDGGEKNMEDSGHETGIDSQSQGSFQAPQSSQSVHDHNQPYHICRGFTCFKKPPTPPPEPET

CN(C)C(=O)c1c(-c2ccccc2)oc2ccc(O)cc12
IC50 (Large T antigen): 46.6 µM (active)

COc1cccc(/C=N/NC(=O)c2nc(-c3ccccc3)cc(-c3ccccc3)n2)c1O
EC50 [1]: > 150 µM (inactive) | EC50 (cells [2]): 12.8 µM (active) | EC50 [3]: 1.54 µM (active) | EC50 (cells [4]): 86.6 µM (active)

CSc1nsc(SCC(=O)NCc2ccccc2)n1
IC50 [5]: > 66 µM (inactive) | IC50 [6]: > 66 µM (inactive)

COc1ccc(-n2ccnc(SCC(=O)NC3CCCC3)c2=O)cc1
IC50 [5]: > 66 µM (inactive) | IC50 [6]: > 66 µM (inactive)

Cc1ccc(NC(=O)C2CCN(S(=O)(=O)c3c(C)noc3/C=C/c3ccco3)CC2)nc1
AC50 [7]: 5.56 µM (active)

Cc1[nH]c(=O)[nH]c(=O)c1N(CCF)CCCl [FLUORODOPAN]
GI50 (P388/ADR): 330 µM (inactive) | GI50 (SN12K1): 249 µM (inactive)

COc1ccc(NCC(=O)N/N=C/C2CCCCC2)cc1
AC50 [8]: 4.57 µM (active)

CCN(CCNC(=O)Cn1cc2c(n1)CCCC2)c1ccccc1
AC50 [8]: 2.46 µM (active)

c1ccc(COC2CCCN(Cc3nc(-c4cccs4)no3)C2)nc1 (stereo not drawn)
IC50 [5]: > 66 µM (inactive) | IC50 [6]: > 66 µM (inactive)

COc1ccc(S(=O)(=O)N(C)C[C@@H]2Oc3ccc(NC(=O)Nc4ccc5c(c4)OCO5)cc3C(=O)N([C@H](C)CO)C[C@@H]2C)cc1
AC50 [9]: 2.3 µM (active) | AC50 [10]: 3.09 µM (active)

CCCC(=O)Nc1nc2n(n1)C(c1ccccc1)CC(=O)N2 (stereo not drawn)
AC50 (Cytochrome P450 3A4): inconclusive

Cc1noc(C)c1COc1ccc(C(=O)NNC(=O)c2ccccc2F)cc1
IC50 [11]: > 80 µM (inactive)

O=C(Nc1cccc(F)c1)N1CC2(CCN(C(=O)Oc3ccccc3)CC2)C1
AC50 (Cytochrome P450 1A2): 12.6 µM (inconclusive) | AC50 (Cytochrome P450 3A4): inconclusive

O=C1C=C(Nc2ccc(O)cc2)CC(c2ccco2)C1 (stereo not drawn)
IC50 (Large T antigen): 9.14 µM (active) | IC50 [12]: 19.6 µM (active)

CN(C)Cc1ccccc1Sc1ccc(O)cc1O
AC50 [8]: 1.78 µM (active)

COc1ccc(Sc2nc(-c3ccccc3)ncc2OC)cc1
EC50 [13]: 18.3 µM (active) | EC50 [14]: > 120 µM (not active) | EC50 [15]: 16 µM (active)

CCC(CC)C(=O)c1c[nH]c(C(=O)NCCCN2CCOCC2)c1
AC50 (Cytochrome P450 1A2): 25.1 µM (inconclusive) | AC50 (Cytochrome P450 3A4): inconclusive

CCO[C@H]1OC(C(=O)Nc2ccccc2)=C[C@@H](c2ccc(Br)cc2)[C@@H]1CCCO
CC50 [16]: 17.6 µM (active) | EC50 [13]: > 120 µM (not active) | EC50 [14]: > 120 µM (not active) | EC50 [15]: > 120 µM (not active)

Cc1ccc(N2C(=O)CC(Sc3ccccc3C(=O)O)C2=O)c([N+](=O)[O-])c1 (stereo not drawn)
IC50 [5]: > 66 µM (inactive) | IC50 [6]: > 66 µM (inactive)

COc1ccc(N2CCN(c3ccc(N4C(=O)CC(C)C4=O)cc3[N+](=O)[O-])CC2)cc1 (stereo not drawn)
EC50 (cells [2]): > 350 µM (not active) | EC50 (cells [4]): 41.1 µM (active)

Cn1ncc2c(N3CCN(c4ccc(Cl)c(Cl)c4)CC3)ncnc21
IC50 [11]: > 80 µM (inactive) | AC50 (INS1): 2.55 µM (active)

COC(=O)c1cc2c(C)c(C)c3ccccn3c-2c1C(=O)OC
IC50 (H9c2): 47.9 µM (inactive) | IC50 [5]: > 66 µM (inactive) | IC50 [6]: > 66 µM (inactive)

CCN1CCCC1CNC(=O)C(=O)Nc1ccc(OC)cc1 (stereo not drawn)
AC50 (Cytochrome P450 2C19): inconclusive | AC50 (Cytochrome P450 3A4): inconclusive

COc1cccc(N2CCN(CC(=O)NC(C)c3ccccc3)CC2)c1 (stereo not drawn)
AC50 [8]: 2.02 µM (active)

COc1cc(/C=C(\C#N)c2nc3ccccc3n2C)cc(OC)c1O
IC50 (Large T antigen): 9.81 µM (active)

COc1cccc(-n2nc(-c3ccnn3-c3ccccc3)c(=O)n(C)c2=O)c1
EC50 [13]: 25.3 µM (active) | EC50 [14]: > 120 µM (not active) | EC50 [15]: > 120 µM (not active)

Cc1ccc(C)c(-c2nc3ccc(N)cc3[nH]2)c1
IC50 (Large T antigen): 83.7 µM (active)

CN(C)c1ccc(NS(=O)(=O)c2cccc(Cl)c2)cc1
IC50 (Large T antigen): 28.7 µM (active)

CCN1CCN(/C=N/c2nc3c(s2)CCCC3)CC1
EC50 [14]: 8.93 µM (active) | EC50 [17]: < 0.16 µM (active) | EC50 [15]: 7.71 µM (active) | AC50 [7]: 6.42 µM (active)

Nc1ncc(-c2ccccc2)c(-c2ccc(O)cc2O)n1
AC50 [8]: 3.66 µM (active)

CC(C)c1ccc(S(=O)(=O)Nc2ccc(O)c(Sc3nc[nH]n3)c2)cc1
AC50 [8]: 1.49 µM (active)

COC(=O)C1C(=O)N2CCCSC2=C(C#N)C1c1cccs1 (stereo not drawn)
EC50 (cells [2]): > 350 µM (not active) | EC50 (cells [4]): > 350 µM (not active)

COc1ccc(C2=CC(c3ccc(F)cc3)n3nnnc3N2)cc1 (stereo not drawn)
IC50 [5]: > 66 µM (inactive) | IC50 [6]: > 66 µM (inactive)

O=C1CCC(C(=O)N2CCCC(Nc3ccc(F)cc3)C2)=NN1 (stereo not drawn)
AC50 [8]: 24.8 µM (active)
